≈ marks a conversion by molar mass, not a printed value. Ends that are not written are not given here.
How the values were obtained:
Escherichia coli 25922 = assay: MIC against E. coli 25922 after incubation of the peptide with mouse serum, gastric juice, small intestinal juice or PBS; format: cell-based; conditions: for MIC after incubation with gastric juice (GAJ), 1h: mouse gastric juice (stomach tissue + PBS pH 2.0, w/w 1:1, supernatant) mixed with peptide v/v 1:1, peptide 1.28 mM, MIC = lowest concentration killing >95% of cells; for MIC after incubation with serum, 1h / MIC after incubation with serum, 4h / MIC after incubation with serum, 8h: mouse serum mixed with peptide v/v 4:1, 1.28 mM; for Effect of the serum environment on antimicrobial activity: mouse serum, 1-8 h incubation, read-out MIC vs E. coli 25922; for MIC after incubation with small intestinal juice (SIJ), 1h: mouse small intestine contents + PBS pH 7.0 (w/w 1:9, supernatant) mixed with peptide v/v 1:1, 1.28 mM; for MIC after incubation in PBS2.0, 1h / MIC after incubation in PBS2.0, 4h / MIC after incubation in PBS2.0, 8h: phosphate-buffered saline pH 2.0, 37°C; for MIC after incubation in PBS7.0, 1h / MIC after incubation in PBS7.0, 4h / MIC after incubation in PBS7.0, 8h: phosphate-buffered saline pH 7.0, 37°C
Description: FIGURE 2 (a) Schematic diagram of the experimental scheme. Red and green arrows indicate the number of oral administrations and corresponding time points, respectively. (b) The experimental group design. (c) R7I MIC changes after incubation with serum, gastric juice, and small intestine fluid against Escherichia coli 25922. Minimum inhibitory concentrations (MICs, μM) were determined as the lowest peptide concentrations that killed greater than 95% of the bacterial cells. A value >64 indicates no detectable antibacterial activity at 64 μM. GAJ, gastric juice; SIJ, small intestinal juice; PBS2.0 and PBS7.0, phosphate‐buffered saline (pH = 2.0 or pH = 7.0); E. coli, Escherichia coli 25922 TEXT PRINTED IN THE PICTURE: (c) R7I + GAJ + E. coli: 1h: 2; 4h: 2; 8h: 2 | (c) R7I + SIJ + E. coli: 1h: 2; 4h: 4; 8h: 4 | (c) R7I + Serum + E. coli: 1h: 2; 4h: 2; 8h: 2 | (c) Melittin + GAJ + E. coli: 1h: >64; 4h: >64; 8h: >64 | (c) Melittin + SIJ + E. coli: 1h: >64; 4h: >64; 8h: >64 | (c) Melittin + Serum + E. coli: 1h: 4; 4h: 8; 8h: 8 | (c) R7I + PBS2.0 + E. coli: 1h: 2; 4h: 2; 8h: 2 | (c) R7I + PBS7.0 + E. coli: 1h: 2; 4h: 2; 8h: 2 | (c) Melittin + PBS2.0 + E. coli: 1h: 2; 4h: 2; 8h: 2 | (c) Melittin + PBS7.0 + E. coli: 1h: 2; 4h: 2; 8h: 2
The C57BL/6 male mice aged 6 weeks were provided by Liaoning Changsheng Biotechnology Co., Ltd., China and euthanized at 10:00 am. The serum was collected and mixed with R7I (v/v = 4:1) to give a final peptide concentration of 1.28 mM. The stomach (cut in half) and the contents of the entire small intestine of the mice were collected and placed in a sterile eppendorf tube. Sterile PBS was added to gastric tissue (w/w = 1:1, pH = 2.0) and small intestine contents (w/w = 1:9, pH = 7.0), and mixed thoroughly by shaking. The mixture was centrifuged to obtain the supernatant as gastric juice and small intestine juice. R7I was dissolved with the corresponding pH PBS. The prepared gastric and small intestine fluids were then mixed separately with R7I (v/v = 1:1) to give a final peptide concentration of 1.28 mM. Melittin was used here as a control. The peptide mixture was incubated in a 37°C incubator for 1, 4 and 8 h. Finally, the minimum inhibitory concentrations (MICs) test was performed to verify peptide activity with Escherichia coli 25922.[18]

[1] = earlier research; cited from earlier work
Text: Importantly, compared with other anti‐proteolytic peptides containing unnatural amino acids, R7I was completely composed of natural amino acids and had dramatic resistance to a high concentration of protease hyd ...

[2] = tested on: pepsin, trypsin, chymotrypsin, and proteinase K; conditions: in vitro; cited from earlier work
[3] = tested on: E. coli ATCC 25922 bacterial enteritis model in mice; assay: Bacterial enteritis model: serum D-lactic acid, diamine oxidase, SIgA (ELISA); format: in vivo, C57BL/6 male mice; conditions: n = 6
Description: C57BL/6 male mice that were 6 weeks old were provided by Liaoning Changsheng Biotechnology Co., Ltd., China. All mice (20.00 ± 2.00 g, 6 weeks old) were randomly divided into 6 groups (n = 12), and they were fed adaptively for 3 days. During the whole experiment, mice can get clean water and a laboratory standard diet ad libitum, under controlled environmental conditions (40%–60% relative humidity, 25 ± 2°C temperature; lighting cycle, 12 h/d). The standard lab diet contained 18% crude protein, 4% crude fat, 5% crude fiber, 8% ash, and 10% moisture.
(§1) The mice were divided into six groups randomly: (1) the control group (E. coli + normal saline); the administration group (E. coli + R7I) is set to three concentration gradients: (2) 20 mg/kg, (3) 30 mg/kg, and (4) 40 mg/kg of body weight; (5) the antibiotic group (E. coli + colistin sulfate), 20 mg/kg of body weight; and (6) the blank group with only normal saline (Figure 2b).
Based on the results of the pre‐experiment, we determined the appropriate concentration of the bacteria. The strain E. coli ATCC 25922 frozen at −20°C was incubated overnight in LB medium (37°C, 220r). The bacterial broth was transferred to a new LB medium at a ratio of 1:100 for 3–5 h to reach the logarithmic growth period. The bacterial precipitate was centrifuged and washed three times with saline to adjust the colony count to 2.0 × 10^9 CFU/ml.
(§2) The blank group was gavaged with 200 μl of saline, and all other groups were gavaged twice with E. coli ATCC 25922 (200 μl) once a day (d1‐2). R7I at different concentrations and colistin sulfate were given twice (12 h intervals) on the d3 and once on d4‐5 by oral administration. Correspondingly, an equal amount of saline was given to the blank and control groups in the same way. On day 6, all mice were euthanized by cervical dislocation under full anesthesia with isoflurane.
To detect the content of diamine oxidase (DAO), D‐lactic acid, and secretory immunoglobulin A (SlgA) in serum, using mouse ELISA kit instruction (Alphabio, Tianjin, China).

[4] = tested on: E. coli ATCC 25922 bacterial enteritis model in mice; assay: Bacterial enteritis model: serum biochemical indices; format: in vivo, C57BL/6 male mice; conditions: other doses of R7I (30, 40 mg/kg) and colistin sulfate 20 mg/kg, oral
Description: as §1, §2
Serum biochemical indices of alanine aminotransferase (ALT), aspartate aminotransferase (AST), alkaline phosphatase (ALP), total bilirubin (TBIL), cholinesterase (CHE), creatinine (CREA), creatine kinase (CK), urea nitrogen (BUN), lactate dehydrogenase (LDH), total protein (TP), albumin (ALB), and globulin (GLB) were measured by the automatic biochemical analyzer (Roche, Cobus‐Mira‐Plus, Roche Diagnostic System Inc., Basel, Switzerland).

[5] = tested on: E. coli ATCC 25922 bacterial enteritis model in mice; assay: Bacterial enteritis model: antioxidant function of the liver; format: in vivo, C57BL/6 male mice; conditions: oral R7I (20, 30, 40 mg/kg) or colistin sulfate 20 mg/kg; vs control group; n = 6
Description: as §1, §2
Total antioxidant capacity (T‐AOC), superoxide dismutase (SOD), glutathione peroxidase (GSH‐Px), malondialdehyde (MDA), and catalase (CAT) enzyme activities in the liver were determined using commercially available kits (Nanjing Jiancheng Bioengineering Institute, Nanjing, China) according to the manufacturer's instructions.

[6] = mouse gastric juice (PBS pH 2.0, w/w 1:1) mixed with peptide v/v 1:1, 1.28 mM, 37°C, 4 h, then MIC vs E. coli 25922
[7] = 37°C, then MIC vs E. coli 25922
[8] = 37°C, 4 h, then MIC vs E. coli 25922
[9] = 37°C, 8 h, then MIC vs E. coli 25922
[10] = mouse small intestine contents + PBS pH 7.0 (w/w 1:9) mixed with peptide v/v 1:1, 1.28 mM, 37°C, 8 h, then MIC vs E. coli 25922
[11] = oral R7I 20, 30, 40 mg/kg or colistin sulfate 20 mg/kg, vs control group, p < 0.05 in most treatment groups, best in 20 mg/kg R7I

Molecule | MIC after incubation with gastric juice (GAJ), 4h (Escherichia coli 25922; [6]) | MIC after incubation with gastric juice (GAJ), 1h (Escherichia coli 25922; [7]) | MIC after incubation with serum, 1h (Escherichia coli 25922; [7]) | MIC after incubation with serum, 4h (Escherichia coli 25922; [8]) | MIC after incubation with serum, 8h (Escherichia coli 25922; [9]) | Effect of the serum environment on antimicrobial activity (Escherichia coli 25922; 37°C) | MIC after incubation with small intestinal juice (SIJ), 8h (Escherichia coli 25922; [10]) | MIC after incubation with small intestinal juice (SIJ), 1h (Escherichia coli 25922; [7]) | MIC after incubation in PBS2.0, 1h (Escherichia coli 25922; then MIC vs E. coli 25922) | MIC after incubation in PBS2.0, 4h (Escherichia coli 25922; 4 h, then MIC vs E. coli 25922) | MIC after incubation in PBS2.0, 8h (Escherichia coli 25922; 8 h, then MIC vs E. coli 25922) | MIC after incubation in PBS7.0, 1h (Escherichia coli 25922; then MIC vs E. coli 25922) | MIC after incubation in PBS7.0, 4h (Escherichia coli 25922; 4 h, then MIC vs E. coli 25922) | MIC after incubation in PBS7.0, 8h (Escherichia coli 25922; 8 h, then MIC vs E. coli 25922) | further results
CC[C@H](C)[C@H](NC(=O)CN)C(=O)NCC(=O)N[C@@H](C)C(=O)N[C@H](C(=O)N[C@@H](CC(C)C)C(=O)N[C@@H](CCCCN)C(=O)N[C@H](C(=O)N[C@@H](CC(C)C)C(=O)N[C@H](C(=O)N[C@H](C(=O)NCC(=O)N[C@@H](CC(C)C)C(=O)N1CCC[C@H]1C(=O)N[C@@H](C)C(=O)N[C@@H](CC(C)C)C(=O)N[C@H](C(=O)N[C@@H](CO)C(=O)N[C@@H](Cc1c[nH]c2ccccc12)C(=O)N[C@H](C(=O)N[C@@H](CCCCN)C(=O)N[C@@H](CCCNC(=N)N)C(=O)N[C@@H](CCCCN)C(=O)N[C@@H](CCCNC(=N)N)C(=O)N[C@@H](CCC(N)=O)C(=O)N[C@@H](CCC(N)=O)C(N)=O)[C@@H](C)CC)[C@@H](C)CC)[C@@H](C)O)[C@@H](C)O)C(C)C)C(C)C [Melittin] | > 64 µM | > 64 µM | 4 µM | 8 µM | 8 µM | slightly compromised | > 64 µM | > 64 µM | 2 µM (≈ 5.69 µg/mL) | 2 µM (≈ 5.69 µg/mL) | 2 µM (≈ 5.69 µg/mL) | 2 µM (≈ 5.69 µg/mL) | 2 µM (≈ 5.69 µg/mL) | 2 µM (≈ 5.69 µg/mL) | MIC after incubation with gastric juice (GAJ), 8h (Escherichia coli 25922; mouse gastric juice (PBS pH 2.0, w/w 1:1) mixed with peptide v/v 1:1, 1.28 mM, 37°C, 8 h, then MIC vs E. coli 25922): > 64 µM; MIC after incubation with small intestinal juice (SIJ), 4h (Escherichia coli 25922; mouse small intestine contents + PBS pH 7.0 (w/w 1:9) mixed with peptide v/v 1:1, 1.28 mM, 37°C, 4 h, then MIC vs E. coli 25922): > 64 µM; Activity after incubation with small intestinal fluid for 1 min (Escherichia coli 25922; small intestinal fluid, 1 min, unused data): inactivated
IRPIIRPIIRPIIRPIIRPIIRPIIRPI-NH2 [R7I] | 2 µM | 2 µM | 2 µM | 2 µM | 2 µM | no negative effect | 4 µM | 2 µM | 2 µM | 2 µM | 2 µM | 2 µM | 2 µM | 2 µM | Cytotoxicity [1]: low cytotoxicity; Resistance to pepsin, trypsin, chymotrypsin, and proteinase K [2]: excellent resistance
colistin sulfate | – | – | – | – | – | – | – | – | – | – | – | – | – | – | Serum D-lactic acid (DLA) level [3, 11]: significantly decreased; Serum diamine oxidase (DAO) level [3, 11]: significantly decreased; Serum secreted immunoglobulin A (SlgA) level vs control group ([3]; partial dose concentrations, oral): raise secreted immunoglobulin A (SlgA) levels compared to the control group, without statistical significance; Serum CREA level [4]: little effect (or even an increasing trend); Serum LDH level [4]: little effect (or even an increasing trend); Serum AST level ([4]; p < 0.05): decrease; Serum TBIL level ([4]; p < 0.05): decrease; Serum ALT level ([4]; p > 0.05): decrease; MDA levels in the liver [5]: significantly dropped
